From ChEMBL document CHEMBL5696443 (Clin Cancer Res, 2016)
Activity calls are given as the source filed them. No cut-off for these calls is given here.

Assays:
[1] = target: Leucine-rich repeat serine/threonine-protein kinase 2 (Homo sapiens, UniProt Q5S007); assay: Inhibition of human LRRK2 using RLGRDKYKTLRQIRQ as substrate in presence of [gamma33P]-ATP by HotSpot assay
[2] = target: Tyrosine-protein kinase JAK2 (Homo sapiens, UniProt O60674); assay: Inhibition of human JAK2 using poly (Glu, Tyr)4:1 as substrate in presence of [gamma33P]-ATP by HotSpot assay
[3] = target: Mitogen-activated protein kinase kinase kinase 9 (Homo sapiens, UniProt P80192); assay: Inhibition of human MAP3K9 using casein as substrate in presence of [gamma33P]-ATP by HotSpot assay
Chain of Mitogen-activated protein kinase kinase kinase 9 (P80192 whole entry): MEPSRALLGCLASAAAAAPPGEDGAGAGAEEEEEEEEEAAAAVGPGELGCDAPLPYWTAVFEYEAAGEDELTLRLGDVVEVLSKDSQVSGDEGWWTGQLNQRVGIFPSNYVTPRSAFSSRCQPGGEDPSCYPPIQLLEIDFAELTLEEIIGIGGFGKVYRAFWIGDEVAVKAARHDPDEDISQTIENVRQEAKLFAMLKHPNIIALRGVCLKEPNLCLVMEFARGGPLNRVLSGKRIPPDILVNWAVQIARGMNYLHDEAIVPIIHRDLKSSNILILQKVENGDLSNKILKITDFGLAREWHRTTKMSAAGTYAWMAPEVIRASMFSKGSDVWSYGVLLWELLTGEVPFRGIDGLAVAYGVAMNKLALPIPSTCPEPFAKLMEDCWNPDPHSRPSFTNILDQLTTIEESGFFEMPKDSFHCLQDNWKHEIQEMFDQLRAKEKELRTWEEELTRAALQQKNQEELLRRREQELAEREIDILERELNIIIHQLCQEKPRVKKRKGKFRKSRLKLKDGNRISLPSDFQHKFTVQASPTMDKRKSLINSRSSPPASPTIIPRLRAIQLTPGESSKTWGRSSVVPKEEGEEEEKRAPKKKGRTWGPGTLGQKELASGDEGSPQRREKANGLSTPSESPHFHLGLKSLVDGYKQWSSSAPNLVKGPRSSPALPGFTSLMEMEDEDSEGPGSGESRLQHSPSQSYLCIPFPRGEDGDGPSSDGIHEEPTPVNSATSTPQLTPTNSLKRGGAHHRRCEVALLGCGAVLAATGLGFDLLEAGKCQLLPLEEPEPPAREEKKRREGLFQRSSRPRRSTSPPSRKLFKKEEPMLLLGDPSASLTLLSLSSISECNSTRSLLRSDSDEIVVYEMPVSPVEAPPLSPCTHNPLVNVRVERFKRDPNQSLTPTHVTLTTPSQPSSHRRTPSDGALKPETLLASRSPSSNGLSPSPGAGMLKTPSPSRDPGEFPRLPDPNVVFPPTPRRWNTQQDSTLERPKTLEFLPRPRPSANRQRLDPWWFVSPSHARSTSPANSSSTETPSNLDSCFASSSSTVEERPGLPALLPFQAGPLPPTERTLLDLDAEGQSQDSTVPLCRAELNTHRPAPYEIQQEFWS

[4] = target: Macrophage colony-stimulating factor 1 receptor (Homo sapiens, UniProt P07333); assay: Inhibition of human FMS using poly (Glu, Tyr)4:1 as substrate in presence of [gamma33P]-ATP by HotSpot assay
[5] = target: BDNF/NT-3 growth factors receptor (Homo sapiens, UniProt Q16620); assay: Inhibition of human NTRK2 using poly (Glu, Tyr)4:1 as substrate in presence of [gamma33P]-ATP by HotSpot assay
[6] = target: Beta-adrenergic receptor kinase 1 (Homo sapiens) (UniProt P25098); assay: Inhibition of human ADRBK1 at 1 uM using casein as substrate in presence of [gamma33P]-ATP by HotSpot assay relative to control
[7] = target: Calcium/calmodulin-dependent protein kinase type II subunit alpha (Homo sapiens) (UniProt Q9UQM7); assay: Inhibition of human CAMK2A at 1 uM using KKALRRQETVDAL as substrate in presence of [gamma33P]-ATP by HotSpot assay relative to control
Chain of Calcium/calmodulin-dependent protein kinase type II subunit alpha (Homo sapiens) (Q9UQM7 whole entry): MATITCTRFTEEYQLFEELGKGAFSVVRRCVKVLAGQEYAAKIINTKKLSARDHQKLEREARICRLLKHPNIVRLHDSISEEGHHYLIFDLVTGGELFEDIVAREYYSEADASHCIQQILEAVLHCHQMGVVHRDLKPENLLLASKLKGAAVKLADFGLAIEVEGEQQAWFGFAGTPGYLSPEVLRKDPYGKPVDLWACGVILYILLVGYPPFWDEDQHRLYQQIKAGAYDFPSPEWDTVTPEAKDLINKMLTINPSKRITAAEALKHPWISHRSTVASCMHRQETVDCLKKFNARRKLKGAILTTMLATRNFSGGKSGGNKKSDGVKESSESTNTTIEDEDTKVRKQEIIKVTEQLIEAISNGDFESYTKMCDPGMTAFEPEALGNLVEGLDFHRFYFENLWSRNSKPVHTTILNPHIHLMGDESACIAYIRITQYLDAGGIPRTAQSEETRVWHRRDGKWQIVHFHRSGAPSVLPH

[8] = target: Cyclin-dependent kinase 2/cyclin E1 (Homo sapiens) (UniProt P24864+P24941); assay: Inhibition of human CDK2/CyclinE at 1 uM using RB protein as substrate in presence of [gamma33P]-ATP by HotSpot assay relative to control; type: protein-complex assay
[9] = target: Dual specificity protein kinase CLK4 (Homo sapiens) (UniProt Q9HAZ1); assay: Inhibition of human CLK4 at 1 uM using MBP as substrate in presence of [gamma33P]-ATP by HotSpot assay relative to control
[10] = target: Serine/threonine-protein kinase DCLK2 (Homo sapiens) (UniProt Q8N568); assay: Inhibition of human DCLK2 at 1 uM using KKLNRTLSFAEPG as substrate in presence of [gamma33P]-ATP by HotSpot assay relative to control
[11] = target: Eukaryotic elongation factor 2 kinase (Homo sapiens) (UniProt O00418); assay: Inhibition of human EEF2K at 1 uM using RKKFGESEKTKTKEFL as substrate in presence of [gamma33P]-ATP by HotSpot assay relative to control
[12] = target: Macrophage-stimulating protein receptor (Homo sapiens) (UniProt Q04912); assay: Inhibition of human MST1R at 1 uM using KKSRGDYMTMQIG as substrate in presence of [gamma33P]-ATP by HotSpot assay relative to control
[13] = target: Serine/threonine-protein kinase Nek7 (Homo sapiens) (UniProt Q8TDX7); assay: Inhibition of human NEK7 at 1 uM using casein as substrate in presence of [gamma33P]-ATP by HotSpot assay relative to control
Chain of Serine/threonine-protein kinase Nek7 (Homo sapiens) (Q8TDX7 whole entry, looked up): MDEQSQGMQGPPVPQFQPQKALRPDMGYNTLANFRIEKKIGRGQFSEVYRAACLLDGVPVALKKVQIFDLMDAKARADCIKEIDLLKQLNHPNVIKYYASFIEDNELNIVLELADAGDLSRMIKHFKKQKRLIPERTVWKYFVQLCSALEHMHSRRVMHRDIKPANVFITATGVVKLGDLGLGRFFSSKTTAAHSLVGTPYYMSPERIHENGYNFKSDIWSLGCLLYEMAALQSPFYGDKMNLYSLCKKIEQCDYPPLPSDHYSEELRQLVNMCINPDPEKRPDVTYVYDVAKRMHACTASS

[14] = target: Serine/threonine-protein kinase PAK 1 (Homo sapiens) (UniProt Q13153); assay: Inhibition of human PAK1 at 1 uM using RRRLSFAEPG as substrate in presence of [gamma33P]-ATP by HotSpot assay relative to control
[15] = target: Protein kinase C epsilon type (Homo sapiens) (UniProt Q02156); assay: Inhibition of human PKCepsilon at 1 uM using ERMRPRKRQGSVRRRV as substrate in presence of [gamma33P]-ATP by HotSpot assay relative to control
[16] = target: Protein kinase C theta type (Homo sapiens) (UniProt Q04759); assay: Inhibition of human PKCtheta at 1 uM using ERMRPRKRQGSVRRRV as substrate in presence of [gamma33P]-ATP by HotSpot assay relative to control
[17] = target: Serine/threonine-protein kinase N2 (Homo sapiens) (UniProt Q16513); assay: Inhibition of human PKN2 at 1 uM using LRRASLG as substrate in presence of [gamma33P]-ATP by HotSpot assay relative to control
[18] = target: Receptor-interacting serine/threonine-protein kinase 2 (Homo sapiens) (UniProt O43353); assay: Inhibition of human RIPK2 at 1 uM using MBP as substrate in presence of [gamma33P]-ATP by HotSpot assay relative to control
[19] = target: Ribosomal protein S6 kinase beta-2 (Homo sapiens) (UniProt Q9UBS0); assay: Inhibition of human RPS6KB2 at 1 uM using KKRNRTLTK as substrate in presence of [gamma33P]-ATP by HotSpot assay relative to control
[20] = target: Wee1-like protein kinase (Homo sapiens) (UniProt P30291); assay: Inhibition of human WEE1 at 1 uM using CDK1 (D146N)/cyclin B1 as substrate in presence of [gamma33P]-ATP by HotSpot assay relative to control
Chain of Wee1-like protein kinase (Homo sapiens) (P30291 whole entry, looked up): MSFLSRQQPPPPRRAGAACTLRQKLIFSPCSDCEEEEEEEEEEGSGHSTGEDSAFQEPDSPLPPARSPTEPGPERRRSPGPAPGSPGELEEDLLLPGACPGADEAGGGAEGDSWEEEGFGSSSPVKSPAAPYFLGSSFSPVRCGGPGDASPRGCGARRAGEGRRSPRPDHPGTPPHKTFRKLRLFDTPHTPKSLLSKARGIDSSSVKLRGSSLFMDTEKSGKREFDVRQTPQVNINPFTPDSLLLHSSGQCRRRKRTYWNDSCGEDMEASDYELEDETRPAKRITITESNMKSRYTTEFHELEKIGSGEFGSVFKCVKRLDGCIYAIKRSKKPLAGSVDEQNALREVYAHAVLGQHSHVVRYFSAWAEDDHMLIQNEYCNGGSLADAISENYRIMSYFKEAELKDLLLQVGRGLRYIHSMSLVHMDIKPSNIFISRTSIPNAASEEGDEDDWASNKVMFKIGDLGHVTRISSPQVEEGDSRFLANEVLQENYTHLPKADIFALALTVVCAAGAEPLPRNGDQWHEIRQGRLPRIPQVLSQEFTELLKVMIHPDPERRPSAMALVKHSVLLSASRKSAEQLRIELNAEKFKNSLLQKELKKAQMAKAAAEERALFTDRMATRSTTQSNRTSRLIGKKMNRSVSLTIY

[21] = target: Serine/threonine-protein kinase WNK2 (Homo sapiens) (UniProt Q9Y3S1); assay: Inhibition of human WNK2 at 1 uM using MBP as substrate in presence of [gamma33P]-ATP by HotSpot assay relative to control
[22] = Average plasma concentration in human at 90 mg administered once a day; type: ADME; settings: in vivo
[23] = Average plasma concentration in human at 180 mg administered once a day; type: ADME; settings: in vivo
BaF3 = assay: Antitumor activity against mouse BaF3 cells expressing native EML4-ALK implanted in mouse assessed as tumor regression at 50 mg/kg, po administered once daily and measured after 8 days relative to control; type: functional; settings: time 8 day
[24] = test system: Protein cereblon/ALK tyrosine kinase receptor/Echinoderm microtubule-associated protein-like 4 (Homo sapiens), Q9UM73+Q9HC35+Q96SW2 [UNDEFINED MUTATION]; settings: BaF3, time 72.0 hrs
[25] = test system: Epidermal growth factor receptor (Homo sapiens), P00533 [L858R,T790M]; settings: BaF3, time 72.0 hrs
[26] = test system: EML4-ALK (Homo sapiens), Q9UM73+Q9HC35 [S1206A]; settings: BaF3, dose 200.0 nmol/L, time 3-5 weeks
[27] = test system: EML4-ALK (Homo sapiens), Q9UM73+Q9HC35 [L1152P]; settings: BaF3, dose 500.0 nmol/L, time 3-5 weeks
[28] = test system: EML4-ALK (Homo sapiens), Q9UM73+Q9HC35 [G1202R]; settings: BaF3, dose 500.0 nmol/L, time 3-5 weeks

Chain of Leucine-rich repeat serine/threonine-protein kinase 2 (Q5S007 whole entry): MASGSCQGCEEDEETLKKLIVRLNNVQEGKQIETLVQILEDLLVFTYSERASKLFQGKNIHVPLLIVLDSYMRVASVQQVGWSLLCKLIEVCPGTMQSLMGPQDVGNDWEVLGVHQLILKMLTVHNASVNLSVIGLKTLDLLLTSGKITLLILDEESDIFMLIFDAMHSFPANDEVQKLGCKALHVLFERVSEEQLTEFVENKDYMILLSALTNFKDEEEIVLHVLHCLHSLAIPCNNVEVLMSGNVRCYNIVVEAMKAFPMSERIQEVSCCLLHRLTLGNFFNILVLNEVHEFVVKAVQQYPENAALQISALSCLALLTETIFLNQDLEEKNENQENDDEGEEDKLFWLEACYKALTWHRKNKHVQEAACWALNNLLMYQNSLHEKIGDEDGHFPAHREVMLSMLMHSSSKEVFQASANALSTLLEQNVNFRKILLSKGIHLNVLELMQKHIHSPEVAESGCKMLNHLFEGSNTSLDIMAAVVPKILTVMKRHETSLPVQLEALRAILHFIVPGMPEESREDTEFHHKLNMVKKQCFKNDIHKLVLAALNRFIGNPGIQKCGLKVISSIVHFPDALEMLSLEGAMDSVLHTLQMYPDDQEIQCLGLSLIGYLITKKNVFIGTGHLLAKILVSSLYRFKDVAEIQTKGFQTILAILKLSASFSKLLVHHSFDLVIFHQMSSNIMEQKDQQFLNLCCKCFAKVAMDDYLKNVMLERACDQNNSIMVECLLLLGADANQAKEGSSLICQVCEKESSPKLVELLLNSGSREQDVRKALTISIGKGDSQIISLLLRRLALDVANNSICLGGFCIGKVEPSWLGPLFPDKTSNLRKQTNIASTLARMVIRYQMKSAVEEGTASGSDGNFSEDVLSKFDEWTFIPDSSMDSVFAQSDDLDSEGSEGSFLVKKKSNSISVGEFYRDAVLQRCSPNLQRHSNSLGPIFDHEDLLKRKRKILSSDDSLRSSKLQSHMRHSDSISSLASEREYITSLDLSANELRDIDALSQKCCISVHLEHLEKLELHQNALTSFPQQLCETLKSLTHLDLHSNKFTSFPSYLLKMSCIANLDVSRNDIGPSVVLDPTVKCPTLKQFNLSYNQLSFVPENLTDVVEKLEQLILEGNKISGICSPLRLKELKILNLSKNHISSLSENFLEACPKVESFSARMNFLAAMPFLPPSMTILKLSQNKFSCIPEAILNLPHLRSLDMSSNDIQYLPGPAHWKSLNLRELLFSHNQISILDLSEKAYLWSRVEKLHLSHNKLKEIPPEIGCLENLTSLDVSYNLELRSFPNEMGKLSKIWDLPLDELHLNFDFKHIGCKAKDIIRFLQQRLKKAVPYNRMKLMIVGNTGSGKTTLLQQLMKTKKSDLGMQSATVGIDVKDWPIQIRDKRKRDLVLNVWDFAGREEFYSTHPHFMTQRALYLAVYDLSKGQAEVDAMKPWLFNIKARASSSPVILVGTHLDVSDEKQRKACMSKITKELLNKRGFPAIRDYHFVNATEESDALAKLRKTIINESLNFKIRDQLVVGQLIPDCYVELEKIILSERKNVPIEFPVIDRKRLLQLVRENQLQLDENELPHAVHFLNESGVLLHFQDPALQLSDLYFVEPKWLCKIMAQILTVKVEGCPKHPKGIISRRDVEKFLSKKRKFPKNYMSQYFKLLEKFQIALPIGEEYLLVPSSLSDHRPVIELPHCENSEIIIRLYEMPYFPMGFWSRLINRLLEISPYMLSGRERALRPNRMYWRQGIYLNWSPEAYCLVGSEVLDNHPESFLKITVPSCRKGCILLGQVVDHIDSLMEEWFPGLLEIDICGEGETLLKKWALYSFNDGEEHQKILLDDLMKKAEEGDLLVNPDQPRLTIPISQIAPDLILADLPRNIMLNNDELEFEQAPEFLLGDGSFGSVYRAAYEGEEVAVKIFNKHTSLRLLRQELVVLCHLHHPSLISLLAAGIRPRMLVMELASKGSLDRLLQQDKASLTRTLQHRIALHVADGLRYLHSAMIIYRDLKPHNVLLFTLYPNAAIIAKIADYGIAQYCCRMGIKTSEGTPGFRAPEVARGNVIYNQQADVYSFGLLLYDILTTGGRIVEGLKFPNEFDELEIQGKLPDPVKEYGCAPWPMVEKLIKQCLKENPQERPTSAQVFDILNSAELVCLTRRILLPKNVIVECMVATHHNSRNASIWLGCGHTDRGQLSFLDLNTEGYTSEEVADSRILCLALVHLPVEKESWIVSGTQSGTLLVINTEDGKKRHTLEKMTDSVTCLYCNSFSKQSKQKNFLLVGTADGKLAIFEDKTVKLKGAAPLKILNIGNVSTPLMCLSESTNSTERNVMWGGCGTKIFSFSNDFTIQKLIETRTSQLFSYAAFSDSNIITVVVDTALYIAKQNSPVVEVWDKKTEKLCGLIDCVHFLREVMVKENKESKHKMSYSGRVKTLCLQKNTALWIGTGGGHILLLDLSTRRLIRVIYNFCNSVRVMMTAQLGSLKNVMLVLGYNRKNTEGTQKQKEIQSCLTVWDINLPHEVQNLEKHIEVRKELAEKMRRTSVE

COc1cc(N2CCC(N3CCN(C)CC3)CC2)ccc1Nc1ncc(Cl)c(Nc2ccccc2P(C)(C)=O)n1 [BRIGATINIB]
IC50 [1]: 0.051 µM | IC50 [2]: 0.154 µM | IC50 [3]: 0.218 µM | IC50 [4]: 0.358 µM | IC50 [5]: > 1 µM | inhibition [6]: < 90% | inhibition [7]: < 90% | inhibition [8]: < 90% | inhibition [9]: < 90% | inhibition [10]: < 90% | inhibition [11]: < 90% | inhibition [12]: < 90% | inhibition [13]: < 90% | inhibition [14]: < 90% | inhibition [15]: < 90% | inhibition [16]: < 90% | inhibition [17]: < 90% | inhibition [18]: < 90% | inhibition [19]: < 90% | inhibition [20]: < 90% | inhibition [21]: < 90% | Cave [22]: 582 nM | Cave [23]: 1447 nM | Activity (BaF3): 89% | IC90 [24]: 0.038 µM | IC90 [25]: 2.97 µM | inhibition [26]: inactive | inhibition [27]: Active | inhibition [28]: Active
